Data: PubChem BioAssay AID1919001 (Molecular Pharmacology Branch, DTP, NCI, 2023)
Values joined by “and” are separate entries in the source; they are usually repeats but may differ in a detail not shown here. Identical values can stand only once.

Tested on: 699152-130-R-J1-PDC complex spheroid growth
Experiment: Anticancer human tumor 699152-130-R-J1-PDC patient-derived pancreatic carcinoma cell line growth inhibition [AhR]
Settings: for viability, T/C: stronger effect = lower value
Method in brief: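 Agents were dosed in half-log steps down from roughly clinical Cmax, or from 10 microM where Cmax was unknown, alone and with AhR antagonists. Read-out: percent test/control growth of tumor spheroids containing HUVEC and MSC stromal cells.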

[1] = curve of first compound, second compound 0.1 µM
[2] = curve of first compound, second compound 0.316 µM
[3] = curve of first compound, second compound 1 µM
[4] = curve of first compound, second compound 3.16 µM
[5] = curve of first compound, second compound 10 µM
[6] = second compound 0.1 µM, first compound 0.0316 µM
[7] = second compound 0.1 µM, first compound 0.1 µM
[8] = second compound 0.316 µM, first compound 0.0316 µM
[9] = second compound 0.316 µM, first compound 0.1 µM
[10] = second compound 1 µM, first compound 0.0316 µM
[11] = second compound 1 µM, first compound 0.1 µM
[12] = second compound 3.16 µM, first compound 0.0316 µM
[13] = second compound 3.16 µM, first compound 0.1 µM
[14] = second compound 10 µM, first compound 0.0316 µM
[15] = second compound 10 µM, first compound 0.1 µM
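Further: compound exposure lasted 7 days after spheroids had grown for 3 days.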

SMILES: CC[C@@]1(O)C(=O)OCc2c1cc1n(c2=O)Cc2cc3c(CN(C)C)c(O)ccc3nc2-1 + Cc1ccccc1N=Nc1ccc(NC(=O)c2ccnn2C)c(C)c1
- IC50 [1]: > 0.1 µM
- IC50 [2]: 0.075 µM
- IC50 [3]: > 0.1 µM
- IC50 [4]: > 0.1 µM
- IC50 [5]: > 0.1 µM
- viability, T/C (second compound 0.1 µM, first compound 0.000316 µM): 95.9%
- viability, T/C (second compound 0.1 µM, first compound 0.001 µM): 99%
- viability, T/C (second compound 0.1 µM, first compound 0.00316 µM): 101%
- viability, T/C (second compound 0.1 µM, first compound 0.01 µM): 82.7%
- viability, T/C [6]: 68.8%
- viability, T/C [7]: 55.1%
- viability, T/C (second compound 0.316 µM, first compound 0.000316 µM): 97.9%
- viability, T/C (second compound 0.316 µM, first compound 0.001 µM): 94%
- viability, T/C (second compound 0.316 µM, first compound 0.00316 µM): 99.6%
- viability, T/C (second compound 0.316 µM, first compound 0.01 µM): 80.1%
- viability, T/C [8]: 63.5%
- viability, T/C [9]: 45.5%
- viability, T/C (second compound 1 µM, first compound 0.000316 µM): 94.2%
- viability, T/C (second compound 1 µM, first compound 0.001 µM): 98.1%
- viability, T/C (second compound 1 µM, first compound 0.00316 µM): 94.2%
- viability, T/C (second compound 1 µM, first compound 0.01 µM): 77.9%
- viability, T/C [10]: 60.5%
- viability, T/C [11]: 50.6%
- viability, T/C (second compound 3.16 µM, first compound 0.000316 µM): 96.2%
- viability, T/C (second compound 3.16 µM, first compound 0.001 µM): 105%
- viability, T/C (second compound 3.16 µM, first compound 0.00316 µM): 92.9%
- viability, T/C (second compound 3.16 µM, first compound 0.01 µM): 86.5%
- viability, T/C [12]: 60.9%
- viability, T/C [13]: 54.3%
- viability, T/C (second compound 10 µM, first compound 0.000316 µM): 107%
- viability, T/C (second compound 10 µM, first compound 0.001 µM): 117%
- viability, T/C (second compound 10 µM, first compound 0.00316 µM): 86.6%
- viability, T/C (second compound 10 µM, first compound 0.01 µM): 82.7%
- viability, T/C [14]: 70%
- viability, T/C [15]: 50.8%

SMILES: COc1cc(Nc2ncc3c(n2)-c2ccc(Cl)cc2C(c2c(F)cccc2OC)=NC3)ccc1C(=O)O
- viability, T/C (compound 0.0316 µM): 97.6% and 87.1% and 94%
- viability, T/C (compound 0.1 µM): 71.4% and 74.1% and 85.8%
- viability, T/C (compound 0.316 µM): 80.8% and 74.1% and 72%
- viability, T/C (compound 1 µM): 60.1% and 59.5% and 65.4%
- viability, T/C (compound 3.16 µM): 58.4% and 63% and 64.4%
- viability, T/C (compound 10 µM): 55.9% and 54.8% and 60.7%
- IC50 (curve of compound): > 10 µM

SMILES: O=C(C=Cc1cccc(S(=O)(=O)Nc2ccccc2)c1)NO + Cc1ccccc1N=Nc1ccc(NC(=O)c2ccnn2C)c(C)c1
- IC50 [1]: > 10 µM
- IC50 [2]: > 10 µM
- IC50 [3]: > 10 µM
- IC50 [4]: > 10 µM
- IC50 [5]: > 10 µM
- viability, T/C [6]: 91.2%
- viability, T/C [7]: 109%
- viability, T/C (second compound 0.1 µM, first compound 0.316 µM): 111%
- viability, T/C (second compound 0.1 µM, first compound 1 µM): 110%
- viability, T/C (second compound 0.1 µM, first compound 3.16 µM): 108%
- viability, T/C (second compound 0.1 µM, first compound 10 µM): 97.8%
- viability, T/C [8]: 87.9%
- viability, T/C [9]: 99.4%
- viability, T/C (second compound 0.316 µM, first compound 0.316 µM): 106%
- viability, T/C (second compound 0.316 µM, first compound 1 µM): 114%
- viability, T/C (second compound 0.316 µM, first compound 3.16 µM): 97.3%
- viability, T/C (second compound 0.316 µM, first compound 10 µM): 95.4%
- viability, T/C [10]: 97.5%
- viability, T/C [11]: 118%
- viability, T/C (second compound 1 µM, first compound 0.316 µM): 111%
- viability, T/C (second compound 1 µM, first compound 1 µM): 116%
- viability, T/C (second compound 1 µM, first compound 3.16 µM): 101%
- viability, T/C (second compound 1 µM, first compound 10 µM): 96.2%
- viability, T/C [12]: 103%
- viability, T/C [13]: 102%
- viability, T/C (second compound 3.16 µM, first compound 0.316 µM): 107%
- viability, T/C (second compound 3.16 µM, first compound 1 µM): 115%
- viability, T/C (second compound 3.16 µM, first compound 3.16 µM): 103%
- viability, T/C (second compound 3.16 µM, first compound 10 µM): 81.5%
- viability, T/C [14]: 109%
- viability, T/C [15]: 114%
- viability, T/C (second compound 10 µM, first compound 0.316 µM): 116%
- viability, T/C (second compound 10 µM, first compound 1 µM): 122%
- viability, T/C (second compound 10 µM, first compound 3.16 µM): 97%
- viability, T/C (second compound 10 µM, first compound 10 µM): 85.2%
